The text below walks through data of patent US20250230193A1, “CYCLIC COMPOUND HAVING SELECTIVE KRAS INHIBITORY EFFECT ON HRAS AND NRAS” (CHUGAI SEIYAKU KABUSHIKI KAISHA, priority 2022, published 2025).

Each structure is given as a SMILES string.

Assay [1] addresses GDP-bound NRAS wild-type protein (Homo sapiens, UniProt P01111). The assay is described as follows: Binding to NRAS by surface plasmon resonance (SPR), Single Cycle Kinetics. As to conditions: KD ratio, GDP-bound NRAS wild-type vs GDP-bound KRAS wild-type, SPR. (In general: Surface plasmon resonance follows binding to a sensor surface in real time, without labels.)
Assay [2] addresses GDP-bound HRAS wild-type protein (Homo sapiens, UniProt P01112). The assay is described as follows: Binding to HRAS by surface plasmon resonance (SPR), Single Cycle Kinetics. The following applies: KD ratio, GDP-bound HRAS wild-type vs GDP-bound KRAS wild-type, SPR.

Chain of GDP-bound HRAS wild-type protein (P01112 whole entry): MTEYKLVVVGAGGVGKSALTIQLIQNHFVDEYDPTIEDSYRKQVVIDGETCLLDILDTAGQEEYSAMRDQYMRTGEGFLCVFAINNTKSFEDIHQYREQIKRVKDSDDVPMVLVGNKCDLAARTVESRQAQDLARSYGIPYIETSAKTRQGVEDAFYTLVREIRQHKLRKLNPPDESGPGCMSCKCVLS
Chain of GDP-bound NRAS wild-type protein (P01111 whole entry): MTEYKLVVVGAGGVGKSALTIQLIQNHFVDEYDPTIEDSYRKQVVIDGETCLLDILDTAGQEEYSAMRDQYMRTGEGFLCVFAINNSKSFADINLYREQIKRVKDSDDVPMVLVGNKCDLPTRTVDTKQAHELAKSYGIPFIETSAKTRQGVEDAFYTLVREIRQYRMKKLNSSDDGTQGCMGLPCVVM

For `CCO[C@@H]1C[C@H]2C(=O)NC3(CCC3)C(=O)N(C)[C@@H](C3CCCC3)C(=O)N(C)[C@H](C(=O)N3CCOCC3)CC(=O)N(C)[C@@H](Cc3ccc(C)cc3)C(=O)N[C@@H]([C@@H](C)CC)C(=O)N(C)CC(=O)N(C)[C@H]3CCCCCN(C3=O)[C@@H](Cc3ccc(C(F)(F)F)cc3)C(=O)N(C)CC(=O)N[C@@H](CCc3cc(F)c(C(F)(F)F)c(F)c3)C(=O)N2C1` [PP0933], the “NRAS/KRAS (ratio of KD value with respect to NRAS to KD value with respect to KRAS)” value in assay [1] was “A (a compound having 10 or more and less than 20 is denoted as A)”. In addition, in assay [2], the “HRAS/KRAS (ratio of KD value with respect to HRAS to KD value with respect to KRAS)” value is “B (a compound having 3 or more and less than 10 is denoted as B)”.
On to `CCO[C@@H]1C[C@H]2C(=O)NC3(CCC3)C(=O)N(C)[C@@H](C3CCCC3)C(=O)N(C)[C@H](C(=O)N(C)C)CC(=O)N(C)[C@@H](Cc3ccccc3F)C(=O)N[C@@H]([C@@H](C)CC)C(=O)N(C)CC(=O)N(C)[C@H]3CCCCCN(C3=O)[C@@H](Cc3ccc(C(F)(F)F)cc3)C(=O)N(C)CC(=O)N[C@@H](CCc3cc(F)c(C(F)(F)F)c(F)c3)C(=O)N2C1` [PP0934], for which the “NRAS/KRAS (ratio of KD value with respect to NRAS to KD value with respect to KRAS)” value in assay [1] was “B (a compound having 3 or more and less than 10 is denoted as B)”. The “HRAS/KRAS (ratio of KD value with respect to HRAS to KD value with respect to KRAS)” value in assay [2] was “B (a compound having 3 or more and less than 10 is denoted as B)”.
As to `CCO[C@@H]1C[C@H]2C(=O)NC3(CCC3)C(=O)N(C)[C@@H](C3CCCC3)C(=O)N(C)[C@H](C(=O)N(C)C)CC(=O)N(C)[C@@H](Cc3cccc(F)c3)C(=O)N[C@@H]([C@@H](C)CC)C(=O)N(C)CC(=O)N(C)[C@H]3CCCCCN(C3=O)[C@@H](Cc3ccc(C(F)(F)F)cc3)C(=O)N(C)CC(=O)N[C@@H](CCc3cc(F)c(C(F)(F)F)c(F)c3)C(=O)N2C1` [PP0935], the “NRAS/KRAS (ratio of KD value with respect to NRAS to KD value with respect to KRAS)” value in assay [1] was “B (a compound having 3 or more and less than 10 is denoted as B)”. For the same compound, in assay [2], the “HRAS/KRAS (ratio of KD value with respect to HRAS to KD value with respect to KRAS)” value is “B (a compound having 3 or more and less than 10 is denoted as B)”.
In the case of `CCO[C@@H]1C[C@H]2C(=O)NC3(CCC3)C(=O)N(C)[C@@H](C3CCCC3)C(=O)N(C)[C@H](C(=O)N(C)C)CC(=O)N(C)[C@@H](Cc3ccc(F)cc3)C(=O)N[C@@H]([C@@H](C)CC)C(=O)N(C)CC(=O)N(C)[C@H]3CCCCCN(C3=O)[C@@H](Cc3ccc(C(F)(F)F)cc3)C(=O)N(C)CC(=O)N[C@@H](CCc3cc(F)c(C(F)(F)F)c(F)c3)C(=O)N2C1` [PP0936], the “NRAS/KRAS (ratio of KD value with respect to NRAS to KD value with respect to KRAS)” value in assay [1] was “B (a compound having 3 or more and less than 10 is denoted as B)”. Also, in assay [2], the “HRAS/KRAS (ratio of KD value with respect to HRAS to KD value with respect to KRAS)” value was “B (a compound having 3 or more and less than 10 is denoted as B)”.
As to `CCO[C@@H]1C[C@H]2C(=O)NC3(CCC3)C(=O)N(C)[C@@H](C3CCCC3)C(=O)N(C)[C@H](C(=O)N(C)C)CC(=O)N(C)[C@@H](Cc3ccc(F)c(F)c3)C(=O)N[C@@H]([C@@H](C)CC)C(=O)N(C)CC(=O)N(C)[C@H]3CCCCCN(C3=O)[C@@H](Cc3ccc(C(F)(F)F)cc3)C(=O)N(C)CC(=O)N[C@@H](CCc3cc(F)c(C(F)(F)F)c(F)c3)C(=O)N2C1` [PP0937], the “NRAS/KRAS (ratio of KD value with respect to NRAS to KD value with respect to KRAS)” value in assay [1] was “B (a compound having 3 or more and less than 10 is denoted as B)”. In addition, in assay [2], the “HRAS/KRAS (ratio of KD value with respect to HRAS to KD value with respect to KRAS)” value is “B (a compound having 3 or more and less than 10 is denoted as B)”.
As to `CCO[C@@H]1C[C@H]2C(=O)NC3(CCC3)C(=O)N(C)[C@@H](C3CCCC3)C(=O)N(C)[C@H](C(=O)N(C)C)CC(=O)N(C)[C@@H](Cc3cccc(Cl)c3)C(=O)N[C@@H]([C@@H](C)CC)C(=O)N(C)CC(=O)N(C)[C@H]3CCCCCN(C3=O)[C@@H](Cc3ccc(C(F)(F)F)cc3)C(=O)N(C)CC(=O)N[C@@H](CCc3cc(F)c(C(F)(F)F)c(F)c3)C(=O)N2C1` [PP0939], the “NRAS/KRAS (ratio of KD value with respect to NRAS to KD value with respect to KRAS)” value in assay [1] was “B (a compound having 3 or more and less than 10 is denoted as B)”. Also, the “HRAS/KRAS (ratio of KD value with respect to HRAS to KD value with respect to KRAS)” value in assay [2] is “B (a compound having 3 or more and less than 10 is denoted as B)”.
In the case of `CCO[C@@H]1C[C@H]2C(=O)NC3(CCC3)C(=O)N(C)[C@@H](C3CCCC3)C(=O)N(C)[C@H](C(=O)N(C)C)CC(=O)N(C)[C@@H](Cc3ccc(Cl)cc3)C(=O)N[C@@H]([C@@H](C)CC)C(=O)N(C)CC(=O)N(C)[C@H]3CCCCCN(C3=O)[C@@H](Cc3ccc(C(F)(F)F)cc3)C(=O)N(C)CC(=O)N[C@@H](CCc3cc(F)c(C(F)(F)F)c(F)c3)C(=O)N2C1` [PP0940], in assay [1], the “NRAS/KRAS (ratio of KD value with respect to NRAS to KD value with respect to KRAS)” value was “B (a compound having 3 or more and less than 10 is denoted as B)”. For the same compound, the “HRAS/KRAS (ratio of KD value with respect to HRAS to KD value with respect to KRAS)” value in assay [2] is “C (A compound having a KD ratio of 0.1 or more and less than 3 is denoted as C)”.
Turning to `CCO[C@@H]1C[C@H]2C(=O)NC3(CCC3)C(=O)N(C)[C@@H](C3CCCC3)C(=O)N(C)[C@H](C(=O)N(C)C)CC(=O)N(C)[C@@H](Cc3ccccc3C)C(=O)N[C@@H]([C@@H](C)CC)C(=O)N(C)CC(=O)N(C)[C@H]3CCCCCN(C3=O)[C@@H](Cc3ccc(C(F)(F)F)cc3)C(=O)N(C)CC(=O)N[C@@H](CCc3cc(F)c(C(F)(F)F)c(F)c3)C(=O)N2C1` [PP0941], the “NRAS/KRAS (ratio of KD value with respect to NRAS to KD value with respect to KRAS)” value in assay [1] was “B (a compound having 3 or more and less than 10 is denoted as B)”. The “HRAS/KRAS (ratio of KD value with respect to HRAS to KD value with respect to KRAS)” value in assay [2] is “B (a compound having 3 or more and less than 10 is denoted as B)”.
With `CCO[C@@H]1C[C@H]2C(=O)NC3(CCC3)C(=O)N(C)[C@@H](C3CCCC3)C(=O)N(C)[C@H](C(=O)N(C)C)CC(=O)N(C)[C@@H](Cc3cccc(C)c3)C(=O)N[C@@H]([C@@H](C)CC)C(=O)N(C)CC(=O)N(C)[C@H]3CCCCCN(C3=O)[C@@H](Cc3ccc(C(F)(F)F)cc3)C(=O)N(C)CC(=O)N[C@@H](CCc3cc(F)c(C(F)(F)F)c(F)c3)C(=O)N2C1` [PP0942], the “NRAS/KRAS (ratio of KD value with respect to NRAS to KD value with respect to KRAS)” value in assay [1] was “B (a compound having 3 or more and less than 10 is denoted as B)”. In addition, the “HRAS/KRAS (ratio of KD value with respect to HRAS to KD value with respect to KRAS)” value in assay [2] was “B (a compound having 3 or more and less than 10 is denoted as B)”.
In the case of `CCO[C@@H]1C[C@H]2C(=O)NC3(CCC3)C(=O)N(C)[C@@H](C3CCCC3)C(=O)N(C)[C@H](C(=O)N(C)C)CC(=O)N(C)[C@@H](Cc3ccc(C)cc3)C(=O)N[C@@H]([C@@H](C)CC)C(=O)N(C)CC(=O)N(C)[C@H]3CCCCCN(C3=O)[C@@H](Cc3ccc(C(F)(F)F)cc3)C(=O)N(C)CC(=O)N[C@@H](CCc3cc(F)c(C(F)(F)F)c(F)c3)C(=O)N2C1` [PP0943], in assay [1], the “NRAS/KRAS (ratio of KD value with respect to NRAS to KD value with respect to KRAS)” value is “B (a compound having 3 or more and less than 10 is denoted as B)”. The “HRAS/KRAS (ratio of KD value with respect to HRAS to KD value with respect to KRAS)” value in assay [2] is “B (a compound having 3 or more and less than 10 is denoted as B)”.
With `CCO[C@@H]1C[C@H]2C(=O)NC3(CCC3)C(=O)N(C)[C@@H](C3CCCC3)C(=O)N(CC)[C@H](C(=O)N3CCOCC3)CC(=O)N(C)[C@@H](CC)C(=O)N[C@@H]([C@@H](C)CC)C(=O)N(C)CC(=O)N(C)[C@H]3CCCCCN(C3=O)[C@@H](Cc3ccc(C(F)(F)F)cc3)C(=O)N(C)CC(=O)N[C@@H](CCc3cc(F)c(C(F)(F)F)c(F)c3)C(=O)N2C1` [PP0944], the “NRAS/KRAS (ratio of KD value with respect to NRAS to KD value with respect to KRAS)” value in assay [1] is “A (a compound having 10 or more and less than 20 is denoted as A)”. In addition, in assay [2], the “HRAS/KRAS (ratio of KD value with respect to HRAS to KD value with respect to KRAS)” value was “A (a compound having 10 or more and less than 20 is denoted as A)”.
